What was measured:
[1] = tested on: Saccharomyces cerevisiae; settings: stated as background; cited from earlier work
[2] = tested on: Escherichia coli; settings: cited from earlier work; for antibacterial activity against Escherichia coli: benzaldehyde derivatives, stated as demonstrated; for antimicrobial activity against Escherichia coli: stated as known
[3] = in vitro biochemical assay for beta-etherase activity on fluorescent substrate MUAV (4MU formation); settings: for total activity (beta-etherase): E. coli cell extracts expressing the protein, 0.1 mM MUAV substrate; for beta-etherase activity on the MUAV substrate (in words): recombinant polypeptide expressed in E. coli
Source text: The model substrate synthesis 150 for use in the biochemical screening for selective activity can be outsourced through a contract research organization (CRO). The enzyme discovery effort can initially be focused on identifying potential beta-etherase candidate genes identified through bioinformatic methods. […] The fluorescent substrate α-O-(β-methylumbelliferyl) acetovanillone (MUAV), for example, can be used in in vitro assays to identify beta-etherase function (Acme Biosciences, Mt. View, Calif.). The formation of 4 methylumbelliferone (4MU) upon hydrolysis of the aryl ether bond can be monitored by fluorescence, for example, at λex=365 nm and λem=450 nm (or 460 nm).
The enzyme screening 155 is done to identify novel etherases 160. […] Expression of the beta-etherase genes can be done in 5 ml or 25 ml samples of the recombinant E. coli strains in LB medium using induction with IPTG. Following induction, and cell harvest, cell pellets can be lysed using the BPER (Invitrogen) cell lysis system. […] The formation of 4 methylumbelliferone (4MU) upon hydrolysis of the aryl ether bond in MUAV can be monitored by fluorescence at λex=365 nm and λem=460 nm, and can provide quantitative measurement of beta-etherase function. Cell extracts of E. coli transformed with the S. paucimobilis ligE and ligF genes can be the assay positive controls. Test or unknown samples can include, for example, E. coli strains expressing putative beta-etherase genes from N. aromaticovorans.
This example describes a method for gene expression in E. coli, as well as beta-etherase biochemical assays. Expression of known and putative beta-etherase genes was performed using 5 ml cultures of the recombinant E. coli strains described herein in Luria Broth medium by induction of gene expression using isopropylthiogalactoside (IPTG) to a final concentration of 0.1 mM. Following induction, and cell harvest, the cells were disrupted using either sonication or the BPER (Invitrogen) cell lysis system.
In vitro reactions were performed in a total volume of 200 ul and contained: 25 mM TrisHCl pH 7.5; 0.5 mM dithiothreitol; 1 mM glutathione; 0.05 mM or 0.1 mM MUAV; 10 ul of clarified cell extract used to initiate the reactions. Following incubation for 2.5 hours at room temperature, a 50 ul sample of the reactions was terminated using 150 uL of 300 mM glycine/NaOH buffer pH 9. The formation of 4 methylumbelliferone (4MU) upon hydrolysis of the aryl ether bond was monitored by the increase in fluorescence at λex=360 nm and λem=450 nm using a Spectramax UV/visible/fluorescent spectrophotometer.
The total protein concentrations of the cell lysates were determined using the BCA reagent system for protein quantification (Pierce).
Induction might be also performed using IPTG concentrations in the range of 0.01-1 mM. Cell disruption might be also performed using toluene permeabilization, French, pressure techniques, or using multiple freeze/thaw cycles in conjunction with lysozyme. Assay conditions might be varied to include TrisHCl at 10-150 mM concentrations and in the pH range of 6.5-8.5; 0-2 mM dithiothreitol; 0.05-2 mM glutathione; 0.01-5 mM MUAV substrate; 22-42° C. reaction temperatures. The biochemical assay might be performed as a fixed time point assay with reaction times ranging from 5 minutes-12 hours, or performed continuously without quenching with glycine/NaOH buffer to extract enzyme kinetic parameters.

## O=C(O)/C=C/c1ccccc1O [o-coumaric acid]
[1]
  antifungal activities against the yeast Saccharomyces cerevisiae: significant antifungal activities

## O=C(O)/C=C/c1ccc(O)cc1 [p-coumaric acid]
[1]
  antifungal activities against the yeast Saccharomyces cerevisiae: significant antifungal activities

## O=Cc1ccc(O)c(O)c1O [2,3,4-trihydroxybenzaldehyde]
[2]
  antibacterial activity against Escherichia coli: antibacterial activity

## COc1cc(C=O)ccc1O [vanillin]
[2]
  antimicrobial activity against Escherichia coli: antimicrobial activity

## O=Cc1cc(O)ccc1O [2,5-dihydroxybenzaldehyde]
[2]
  antibacterial activity against Escherichia coli: antibacterial activity

## COc1cc(C=O)cc(OC)c1O [syringaldehyde]
[2]
  antimicrobial activity against Escherichia coli: antimicrobial activity

## O=C(O)/C=C/c1cccc(O)c1 [m-coumaric acid]
[1]
  antifungal activities against the yeast Saccharomyces cerevisiae: significant antifungal activities

## O=Cc1ccccc1O [2-hydroxybenzaldehyde]
[2]
  antibacterial activity against Escherichia coli: antibacterial activity

## COc1cccc(C=O)c1O [2-hydroxy-3-methoxybenzaldehyde]
[2]
  antibacterial activity against Escherichia coli: antibacterial activity

## COc1cc(C(=O)O)ccc1O [vanillic acid]
[1]
  antifungal activities against the yeast Saccharomyces cerevisiae: significant antifungal activities

## O=Cc1ccc(O)cc1 [4-hydroxybenzaldehyde]
[2]
  antimicrobial activity against Escherichia coli: antimicrobial activity

## COc1ccc(C=O)cc1OC [Veratraldehyde]
[1]
  antifungal activities against the yeast Saccharomyces cerevisiae: significant antifungal activities

## O=Cc1ccco1 [furfural]
[2]
  antimicrobial activity against Escherichia coli: antimicrobial activity

## O=Cc1cccc(O)c1O [2,3-dihydroxybenzaldehyde]
[2]
  antibacterial activity against Escherichia coli: antibacterial activity

## COc1cc(O)cc(OC)c1C=O [4-hydroxy-2,6-dimethoxybenzaldehyde]
[2]
  antibacterial activity against Escherichia coli: antibacterial activity

## O=Cc1ccc(O)cc1O [2,4-dihydroxybenzaldehyde]
[2]
  antibacterial activity against Escherichia coli: antibacterial activity

## COc1cc(CCC(C)=O)ccc1O [vanillylacetone]
[1]
  antifungal activities against the yeast Saccharomyces cerevisiae: significant antifungal activities

## O=Cc1ccc(CO)o1 [5-hydroxymethylfurfural]
[2]
  antimicrobial activity against Escherichia coli: antimicrobial activity

## COc1ccc(O)c(C=O)c1 [2-hydroxy-5-methoxybenzaldehyde]
[2]
  antibacterial activity against Escherichia coli: antibacterial activity

## O=C(O)C=Cc1ccccc1 [cinnamic acid]
[1]
  antifungal activities against the yeast Saccharomyces cerevisiae: significant antifungal activities

## O=Cc1c(O)cc(O)cc1O [2,4,6-trihydroxybenzaldehyde]
[2]
  antibacterial activity against Escherichia coli: antibacterial activity

B1: LigF2: Novosphingobium aromaticivorans putative beta-etherase, glutathione S-transferase-like polypeptide LigF-2 (protein)
chain: MALKYYHAEPLANSLKSMVPLKEKGLAYESIYVDLHKFEQHQPWFTAINPEGQVPVLDHDGTIITHTTVINEYLEDAFPDAQPADAPLRPRDPVGAARMRYWNKFIDEHVMNYVSMHGWHRMVGVIARNIASGDFEKLLESIPLPDQRKKWATARSGFSEADLANATAKIEYALDKVEKQLGETKWLAGDTYTLADINFYSHCGAMVERMFPEMEVARRAPRLCEWRDRVAARPAVAEALKSEDRTAPGLRVWSGEVR
[3]
  total activity (beta-etherase): 1206 rfu/ug
  beta-etherase activity on the MUAV substrate (in words): beta-etherase activity
[3]; MUAV substrate, compared with S. paucimobilis LigF
  efficiency relative to S. paucimobilis LigF protein: approximately 2 fold

B2: ligE: Sphingomonas paucimobilis beta-etherase LigE, positive control polypeptide (protein)
chain: MARNNTITLYDLQLESGCTISPYVWRTKYALKHKGFDIDIVPGGFTGILERTGGRSERVPVIVDDGEWVLDSWVIAEYLDEKYPDRPMLFEGPTQKNLMKFLDNWLWSTAVGPWFRCYILDYHDLSLPQDRDYVRWSREQWFLGGQRLEDVQAGREDRLPLVPPTLEPFRRILAETKWLGGDQPNFADYSALAVFLWTASVARTPPLTEDDPLRDWLDRGFDLFDGLGRHPGMNPLFGLKLREGDPEPFVRQTGPAGAGGQALNKGPQTTKMPPRVAEKAD
[3]
  total activity (beta-etherase): 7 rfu/ug

B3: ABD27309.1: Novosphingobium aromaticivorans putative beta-etherase polypeptide LigF-3 (protein)
chain: MDEVSLYHWEPNANSGKPMLALMEKGVPFSSHYIDMLQFDQHKPEYLAINPQGTIPAMTHNGQVLTESTAIMEYVNDRFDGPDLMPADAQDRWRVRWWMKFMDQWLGPSFSMIGWSVFVGPMVRQRDPAELAAAIDRIPLPERRTAWRKAINGDFSESEMAESRRRVGLGIAKLEEELGKRPYVGSNQYSLADINIFNSTYSLPISQPDLAGKDRTPNIMRWLKRVYTREAVKKTWAMGKTDLAHRYGLIMAEIEG
[3]
  beta-etherase activity on the MUAV substrate (in words): beta-etherase activity

B4: ABD26530.1: Novosphingobium aromaticivorans putative beta-etherase polypeptide LigF-1 (protein)
chain: MVIPLGEDNTIMLKLYSFGPAANSMKPLLTVFEKGLDVEKHRLDPAKFEHHTDWFKAINPRGQVPALVDGDKVVTESTVICEYLEDEYPTEVALRPADSFGKAQMRIWTKWVDEYFCWCVSTIGWHRYVGNMVKSLSDAEFEEKVKAIPVIEQQVKWRRAREGFPQDMLDEEMRKIAYSVRKLDDHLADHEWLVPGQYTLADICNFAIANGMQFGFAELVNKQDTPHLVRWIEQINERPAVKQMFAQVELEKLGPRE
[3]
  beta-etherase activity on the MUAV substrate (in words): beta-etherase activity

B5: ligE1: Novosphingobium aromaticivorans putative beta-etherase, glutathione S-transferase-like polypeptide, GenBank ABD26841.1, expressed in E. coli (protein)
chain: MAANNTITFYDLALSTGATISPFVWATKYALKHKGFDLDVVPGGFTGILERTGGKTERLPAIVDDGEFVLDSWGIVEYLDAKYPDRPVLIPHESVAATLKALDNWFWNAAVGPWMFCFCQDYRDLSLPQDHEYVTHSREKMLGRKLEEVQAGREERLPKISAALEPLRAALAQHQWLGGSSPNYADYRIMGGILFTASVCKTPVLANDDPLRDWIERCLDLYGGLGRHPGLFPLFGLEQREGDPDLFNRAAGQGGIYKRNTGPESTRAETQRITEGMKK
[3]
  total activity (beta-etherase): 529 rfu/ug
  beta-etherase activity on the MUAV substrate (in words): beta-etherase activity
[3]; MUAV substrate, compared with S. paucimobilis ligE
  efficiency relative to S. paucimobilis ligE beta-etherase: approximately 75 fold

B6: LigF: Sphingomonas paucimobilis beta-etherase LigF, positive control polypeptide (protein)
chain: MTLKLYSFGPGANSLKPLATLYEKGLEFEQVFVDPSKFEQHSDWFKKINPRGQVPALWHDGKVVTESTVICEYLEDVFPESGNSLRPADPFKRAEMRVWTKWVDEYFCWCVSTIGWAFGIKAIAQKMSDEEFEEHINKNVPIPEQQLKWRRARNGFPQEMLDEEFRKVGVSVARLEETLSKQDYLVDTGYSLADICNFAIANGLQRPGGFFGDYVNQEKTPGLCAWLDRINARPAIKEMFEKSKREDLLKRQNEKVA
[3]
  total activity (beta-etherase): 558 rfu/ug

From US20120196334A1, “LIGF-TYPE ENZYMES FOR BIOCONVERSION OF LIGNIN-DERIVED COMPOUNDS” (priority 2010, published 2012)
